Laboratory results as given in patent US20090215775A1, “Sulphonamido-Substituted Cyclohexyl Sulphones for Treatment of Cancer” (priority 2005, published 2009).

Test system: Cells expressing Notch (ALL-SIL, DND-41, HPB-ALL or TALL-1)
Assay: Assay for Cell Cycle Arrest (propidium iodide, FACS)
Format: cell-based
Settings: concentrations up to 10 μM; incubation typically 4-8 days; in comparison to untreated controls
Experimental: Cells expressing Notch (ALL-SIL, DND-41, HPB-ALL or TALL-1) (Weng et al, Science, 306 (2004), 269-71) are incubated in the presence or absence of a compound of the instant invention (e.g. the compound of Example 47 below) at concentrations up to 10 μM. At the end of the incubation (typically 4-8 days), the cells are collected, fixed in 70% ethanol on ice for >2 hours, washed, then labelled for 15 min at 37° C. with propidium iodide (0.2 mg/ml) (PI) in the presence of 0.1% Triton X100 and 0.2 mg/ml RNase and subjected to FACS analysis.

SMILES: O=S(=O)(N[C@H]1CC[C@@](c2cc(F)ccc2F)(S(=O)(=O)c2ccc(Cl)cc2)CC1)C(F)(F)F [Example 47, trifluoromethanesulfonic acid, N-[4-(4-chlorobenzenesulfonyl)-4-(2,5-difluorophenyl)-cyclohexyl]-amide]
- G2- and S-phase populations (FACS analysis): severe loss of G2- and S-phase populations
